Laboratory results taken from PubChem BioAssay AID1963840 (Molecular Pharmacology Branch, DTP, NCI, 2024).
Several values for one entry are separate records, joined by “and”; a condition that tells them apart may be missing. Equal entries are not always repeated.

System: 695427-040-R-J1-PDC complex spheroid viability
Test: Anticancer human tumor 695427-040-R-J1-PDC patient-derived colon adenocarcinoma cell line growth inhibition [POLQ]
Conditions: for viability, T/C: stronger effect = lower value
Procedure: Multicellular complex tumor spheroid response to Polymerase (POL) inhibitors (novobiocin, ART-558, RP6685) in combination with a variety of drugs and investigational agents in selected tumor cell lines
The POL inhibitors (novobiocin, ART-558, and RP6685) were evaluated both individually and in combination with standard of care and investigational anticancer small molecules within a complex spheroid model of solid tumors. . Complex spheroids include a stromal component modeled by human endothelial cells (HUVEC) and fibroblasts modeled by human mesenchymal stem cells (MSCs). The concentration ranges selected for each drug and investigational agent were based upon clinically achievable concentrations if the clinical Cmax of the agent was known.
Compounds. The drugs and investigational agents: novobiocin (NSC847541), ART-558 (NSC835418), RP-6685 (NSC848927), peposertib (NSC802822), ceralasertib (NSC780249), elimusertib (NSC800525), camonsertib (NSC841442), AZD-1390 (NSC803789), olaparib (NSC753686), talazoparib (NSC767125), rucaparib (NSC756644), sotorasib (NSC818433), MRTX-1133 (NSC836407), SN-38 (NSC673596), topotecan (NSC609699), epotoside (NSC141540), doxorubicin (NSC123127), gemcitabine (NSC613327), 5-fluorouracil (NSC19893), paclitaxel (NSC125973), vemurafenib (NSC761431), MSA-2 (NSC828583), SN-011 (NSC837082), adavosertib (NSC754352), prexasertib (NSC758257), carboplatin (NSC241240) and oxaliplatin (NSC266046), were obtained from the National Cancer Institute (NCI) Developmental Therapeutics Program Chemical Repository (21). The FDA-approved anticancer drug set is available from the Developmental Therapeutics Program at https://dtp.cancer.gov/organization/dscb/obtaining/. […] The stock solutions were prepared in dimethyl sulfoxide (DMSO, Sigma-Aldrich, St. Louis, MO, cat. D2650), except for the platinum compounds which were prepared in saline (Quality Biological, Gaithersburg, MD, cat. 114-055-101), at 800-fold the tested concentration and stored at -70 degrees C prior to their use. All drugs and investigational agents were tested over a range starting from a high concentration at or near the clinical Cmax and decreasing in half-log increments. If the clinical Cmax for an agent had not been determined, the highest concentration tested was 10 microM, except for SN-38, which was tested at a high concentration of 1 microM.
Cell Culture. All cells were maintained in an incubator at 37 degrees C and 5% CO2 with 95% humidity. The PDC lines were cultured according to standard operating procedures established by the NCI PDMR (https://pdmr.cancer.gov). Table 3 of the manuscript, lists the cell lines along with the number of the three cell types plated to form the mct-spheroids and media for tumor cell growth. After thawing, all PDC lines, except 997537-175-T-J1-PDC and 415267-285-R-J2-PDC, were cultured in Matrigel-coated flasks prepared with a working solution of 1X Ham's F-12 nutrient mix, without supplementation (Thermo Fisher Scientific, cat. 11765054), 100 U/mL penicillin-streptomycin (Thermo Fisher Scientific, cat. 15140122), and 2.5% Matrigel (Corning Inc., Corning, NY, cat. 354248) for the first three passages. The two PDC lines 997537-175-T-J1-PDC and 415267-285-R-J2-PDC were cultured on uncoated flasks. The 857933-349-R-J2-PDC line was cultured in 6C/Colon 1B media containing advanced DMEM/F-12 (Thermo Fisher Scientific, cat. 12634028), 10 mM HEPES (Thermo Fisher Scientific, cat. 15630080), 1X GlutaMAX supplement (Thermo Fisher Scientific, cat. 35050061), 0.1 mg/mL primocin (InvivoGen, San Diego, CA, cat. ant-pm-2), 10% defined fetal bovine serum, heat inactivated (HyClone Laboratories Inc., Logan, UT, cat. SH30070.03HI), 50% L-WRN conditioned media (ATCC, cat. CRL-3276), 1.25 mM N-Acetyl-L-cysteine (Sigma-Aldrich, cat. A9165), 10 mM nicotinamide (Sigma-Aldrich, cat. N0636), 1X B-27 supplement (Thermo Fisher Scientific, cat. 17504044), 1X N-2 supplement (Thermo Fisher Scientific, cat. […]
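Also: spheroids exposed to compounds for seven days.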
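For viability, T/C in this document: 100% = DMSO vehicle control viability.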

Structure (SMILES): CC1COCCN1c1cc(-c2ccnn2C)c2ccnc(-c3ccn[nH]3)c2n1 (stereo not given)
- viability, T/C (compound 0.0316 µM): 99% and 89.7% and 98.1%
- viability, T/C (compound 0.1 µM): 76.9% and 79.1% and 84.7%
- viability, T/C (compound 0.316 µM): 64.2% and 62% and 69.8%
- viability, T/C (compound 1 µM): 53.6% and 51.7% and 67.6%
- viability, T/C (compound 3.16 µM): 48.9% and 46% and 62.1%
- viability, T/C (compound 10 µM): 50.2% and 47.4% and 57.1%
- IC50 (curve of compound): 4.35 µM and 1.4 µM and > 10 µM

Structure (SMILES): COc1ccc([C@@H](O)c2cc(-c3ncnc4cc(N5CCOCC5)ccc34)c(F)cc2Cl)nn1 + Cc1cccc(N(C)C(=O)C2C(O)CCN2c2nc(C)cc(C(F)(F)F)c2C#N)c1
- IC50 (curve of first compound, second compound 0.0316 µM): > 10 µM
- IC50 (curve of first compound, second compound 0.1 µM): > 10 µM
- IC50 (curve of first compound, second compound 0.316 µM): > 10 µM
- IC50 (curve of first compound, second compound 1 µM): > 10 µM
- IC50 (curve of first compound, second compound 3.16 µM): 9.23 µM
- IC50 (curve of first compound, second compound 10 µM): > 10 µM
- viability, T/C (second compound 0.0316 µM, first compound 0.0316 µM): 98.6%
- viability, T/C (second compound 0.0316 µM, first compound 0.1 µM): 94.8%
- viability, T/C (second compound 0.0316 µM, first compound 0.316 µM): 101%
- viability, T/C (second compound 0.0316 µM, first compound 1 µM): 99%
- viability, T/C (second compound 0.0316 µM, first compound 3.16 µM): 77.5%
- viability, T/C (second compound 0.0316 µM, first compound 10 µM): 57.6%
- viability, T/C (second compound 0.1 µM, first compound 0.0316 µM): 103%
- viability, T/C (second compound 0.1 µM, first compound 0.1 µM): 103%
- viability, T/C (second compound 0.1 µM, first compound 0.316 µM): 97.4%
- viability, T/C (second compound 0.1 µM, first compound 1 µM): 91.8%
- viability, T/C (second compound 0.1 µM, first compound 3.16 µM): 85.2%
- viability, T/C (second compound 0.1 µM, first compound 10 µM): 57.3%
- viability, T/C (second compound 0.316 µM, first compound 0.0316 µM): 109%
- viability, T/C (second compound 0.316 µM, first compound 0.1 µM): 104%
- viability, T/C (second compound 0.316 µM, first compound 0.316 µM): 103%
- viability, T/C (second compound 0.316 µM, first compound 1 µM): 92.7%
- viability, T/C (second compound 0.316 µM, first compound 3.16 µM): 78.5%
- viability, T/C (second compound 0.316 µM, first compound 10 µM): 53.6%
- viability, T/C (second compound 1 µM, first compound 0.0316 µM): 100%
- viability, T/C (second compound 1 µM, first compound 0.1 µM): 93.8%
- viability, T/C (second compound 1 µM, first compound 0.316 µM): 94%
- viability, T/C (second compound 1 µM, first compound 1 µM): 92.1%
- viability, T/C (second compound 1 µM, first compound 3.16 µM): 84.1%
- viability, T/C (second compound 1 µM, first compound 10 µM): 52.3%
- viability, T/C (second compound 3.16 µM, first compound 0.0316 µM): 92%
- viability, T/C (second compound 3.16 µM, first compound 0.1 µM): 101%
- viability, T/C (second compound 3.16 µM, first compound 0.316 µM): 95.9%
- viability, T/C (second compound 3.16 µM, first compound 1 µM): 87.4%
- viability, T/C (second compound 3.16 µM, first compound 3.16 µM): 74.5%
- viability, T/C (second compound 3.16 µM, first compound 10 µM): 48.1%
- viability, T/C (second compound 10 µM, first compound 0.0316 µM): 97.2%
- viability, T/C (second compound 10 µM, first compound 0.1 µM): 79.7%
- viability, T/C (second compound 10 µM, first compound 0.316 µM): 83.8%
- viability, T/C (second compound 10 µM, first compound 1 µM): 78.9%
- viability, T/C (second compound 10 µM, first compound 3.16 µM): 71.6%
- viability, T/C (second compound 10 µM, first compound 10 µM): 51%

Structure (SMILES): CC1COCCN1c1cc(C2(O)CC3CCC(C2)O3)c2cnn(-c3ccn[nH]3)c2n1 (stereo not given)
- viability, T/C (compound 0.0316 µM): 100% and 101% and 103%
- viability, T/C (compound 0.1 µM): 85.7% and 87.4% and 94.1%
- viability, T/C (compound 0.316 µM): 79.1% and 75.7% and 85.8%
- viability, T/C (compound 1 µM): 64.4% and 68.9% and 78.5%
- viability, T/C (compound 3.16 µM): 55.6% and 52% and 69%
- viability, T/C (compound 10 µM): 46.3% and 44.4% and 55.9%
- IC50 (curve of compound): 6.3 µM and 5.11 µM and > 10 µM

Structure (SMILES): O=c1[nH]cc(F)c(=O)[nH]1
- viability, T/C (compound 0.0316 µM): 105% (2×) and 104%
- viability, T/C (compound 0.1 µM): 95.7% and 106% and 103%
- viability, T/C (compound 0.316 µM): 93.2% and 102% and 99.6%
- viability, T/C (compound 1 µM): 102% and 100% (2×)
- viability, T/C (compound 3.16 µM): 102% and 115% and 103%
- viability, T/C (compound 10 µM): 96% and 111% and 99.7%
- IC50 (curve of compound): > 10 µM

Structure (SMILES): C=CC(=O)N1CCN(c2nc(=O)n(-c3c(C)ccnc3C(C)C)c3nc(-c4c(O)cccc4F)c(F)cc23)C(C)C1 (stereo not given)
- viability, T/C (compound 0.0316 µM): 105% and 108% and 107%
- viability, T/C (compound 0.1 µM): 88.5% and 91.5% and 95.3%
- viability, T/C (compound 0.316 µM): 103% and 107% and 106%
- viability, T/C (compound 1 µM): 117% and 106% and 121%
- viability, T/C (compound 3.16 µM): 105% and 91.4% and 112%
- viability, T/C (compound 10 µM): 113% (2×) and 96.9%
- IC50 (curve of compound): > 10 µM
